Tests used:
Format in all cases: physicochemical
[1] = Titration of aqueous sample with sodium hydroxide, composition by HPLC (dimer formation); conditions: pH of about 6.2 after titration with sodium hydroxide
From the text: The molarity of sample 4 was confirmed to be 0.025M by titrating the aqueous sample with sodium hydroxide. […] It was also discovered that at pHs greater than 5.8, such as at a pH of about 6.2, some of the pyruvic acid was present in the form of a dimerized sodium salt. […] As such, it was discovered that to minimize dimmer formation, it may be necessary to control the pH of [1-^13C]pyruvate solutions, and in particular, any aqueous solution should be maintained at a pH of about 6.5 or less, more preferably 6.0 or less, and even more preferably 5.8 or less.

[2] = Shelf storage stability of [1-^13C]pyruvic acid in water, compared by ^1H and ^13C NMR spectra; conditions: 0.025M in water; for Shelf stability (NMR spectra unchanged): all conditions of Table 1
Experimental: Samples of isotopically labeled [1-^13C]pyruvic acid, having Formula VI and synthesized as discussed immediately below, were subjected to various conditions as depicted in Table 1, in order to establish the compound's shelf storage stability.
The resulting [1-^13C]pyruvic acid was tested as follows in Table 1:
^1H and ^13C NMR spectra of the distilled [1-^13C]pyruvic acid in water (0.025M) were acquired at the onset of the study and prior to exposing the samples to the various conditions specified in Table 1. ^1H and ^13C NMR spectra were again acquired for each of the samples after being exposed to the aforementioned conditions on a weekly basis for 12-weeks. The spectra acquired after exposure were compared visually and appeared to remain unchanged as compared with the spectra acquired prior to exposure, i.e. the spectra were as expected for [1-^13C]pyruvic acid in water. As such, it was concluded that each of the samples were shelf stable. Similarly, ^1H and ^13C NMR spectra acquired after 17-weeks of exposure remained unchanged as compared with the spectra acquired prior to exposure.

[3] = Concentration studies: stability of pyruvic acid solutions in water at higher concentrations
Experimental: Each of these commercial solutions were subjected to light for 6-weeks at temperatures ranging from about 22° C. to about 26° C. At each of the concentrations listed below, it was discovered that the pyruvic acid solutions were stable.

[4] = Sample 3: Room temperature (about 22° C. to about 26° C.), Dark
[5] = Sample 4: Room temperature (about 22° C. to about 26° C.), Light

| Content of dimerized [1-^13C]pyruvate salt by HPLC [1] | Content of sodium [1-^13C]pyruvate by HPLC [1] [%] | Share of the pyruvic acid accounted for by dimerized salt [1] | Shelf stability, 12 weeks ([2]; Sample 1: −10° C., Dark) | Shelf stability, 17 weeks ([2]; Sample 1: −10° C., Dark) | Shelf stability, 12 weeks ([2]; Sample 2: 4° C., Dark) | Shelf stability, 17 weeks ([2]; Sample 2: 4° C., Dark) | Shelf stability, 12 weeks [2, 4] | Shelf stability, 17 weeks [2, 4] | Shelf stability, 12 weeks [2, 5] | Shelf stability, 17 weeks [2, 5] | Shelf stability (NMR spectra unchanged) ([2]; 17-weeks) | Shelf stability (NMR spectra unchanged) ([2]; weekly for 12-weeks) | Stability of solutions in water at higher concentrations (believed) ([3]; at least the concentrations of Table 2 in water, inferred from commercial pyruvic acid) | Stability of solutions in water ([3]; each of the concentrations of Table 2, light, 6-weeks, about 22° C. to about 26° C.) | Compound |
| --- | --- | --- | --- | --- | --- | --- | --- | --- | --- | --- | --- | --- | --- | --- | --- |
| 2-4% | 89 | 4-6% | Stable | Stable | Stable | Stable | Stable | Stable | Stable | Stable | shelf stable | shelf stable | stable | – | CC(=O)[13C](=O)O [[1-^13C]pyruvic acid] |
| – | – | – | – | – | – | – | – | – | – | – | – | – | – | stable | CC(=O)C(=O)O [Pyruvic acid, 2-oxopropanoic acid, reference compound] |
